Experimental data from paper PMC12988607 (BMC Pharmacology & Toxicology, 2026).
Read-outs that look alike come from different tables or passages of the source.

How the values were obtained:
[1] = format: in vivo, healthy Chinese volunteers; conditions: for AUC(0-t): AUC0-t; for AUC(0-t) / AUC(0-inf) / Cmax / Tmax: geometric mean; for AUC(0-inf): AUC0-∞; for half-life: t1/2, geometric mean
[2] = test system: healthy Chinese volunteers; experiment: Urine PD parameters; format: in vivo; conditions: for urine-GLU: 0~4 h after 10 mg EMPA, p < 0.001
[3] = test system: healthy Chinese volunteers; experiment: Blood PD parameters; format: in vivo; conditions: p < 0.05; for blood-GLU / insulin: fasting group; for blood-GLU: before EMPA (5.1 ± 0.4) mmol/L; for insulin: before EMPA (7.0 ± 3.7) mU/L
[4] = test system: healthy Chinese volunteers; experiment: RAAS-related parameters; format: in vivo; conditions: for Ang II: after EMPA
[5] = cited from earlier work
[6] = within 3 hours; cited from earlier work
[7] = Fed (high-fat diet), single 10 mg EMPA
[8] = human, plasma, oral, 10 mg, Fasting, single 10 mg EMPA
[9] = human, plasma, oral, 10 mg, Fed (high-fat diet), single 10 mg EMPA

Plasma concentrations Fasting/fed ([1]; 0.5 h after 10 mg EMPA): 3.00
Plasma concentrations Fasting/fed ([1]; 1 h after 10 mg EMPA): 2.27
Plasma concentrations Fasting/fed ([1]; 1.25 h after 10 mg EMPA): 1.92
Plasma concentrations Fasting/fed ([1]; 1.5 h after 10 mg EMPA): 1.71
Plasma concentrations Fasting/fed ([1]; 1.75 h after 10 mg EMPA): 1.68
Plasma concentrations Fasting/fed ([1]; 2 h after 10 mg EMPA): 1.61
Plasma concentrations Fasting/fed ([1]; 2.25 h after 10 mg EMPA): 1.62
Plasma concentrations Fasting/fed ([1]; 2.75 h after 10 mg EMPA): 1.55
Plasma concentrations Fasting/fed ([1]; 3 h after 10 mg EMPA): 1.55
Plasma concentrations Fasting/fed ([1]; 4 h after 10 mg EMPA): 1.40
Plasma concentrations Fasting/fed ([1]; 6 h after 10 mg EMPA): 1.36
Plasma concentrations Fasting/fed ([1]; 8 h after 10 mg EMPA): 1.30
Plasma concentrations Fasting/fed ([1]; 10 h after 10 mg EMPA): 1.24
Plasma concentrations Fasting/fed ([1]; 12 h after 10 mg EMPA): 1.21
Plasma concentrations Fasting/fed ([1]; 24 h after 10 mg EMPA): 1.09
Plasma concentrations Fasting/fed ([1]; 36 h after 10 mg EMPA): 1.09
Plasma concentrations Fasting/fed ([1]; 48 h after 10 mg EMPA): 1.03
AUC_%Extrap, geometric mean ([1]; Fasting, single 10 mg EMPA): 1.80%
AUC_%Extrap, geometric mean [1, 7]: 2.57%
λz, geometric mean [1, 7]: 0.08 h⁻¹
k el ([1]; human, plasma, oral, 10 mg): 2.22e-05 s⁻¹
AUC(0-t) [1, 8]: 1310 ng·h/mL
AUC(0-t) [1, 9]: 951 ng·h/mL
AUC(0-inf) [1, 8]: 1330 ng·h/mL
AUC(0-inf) [1, 9]: 978 ng·h/mL
Cmax [1, 8]: 187 ng/mL
Cmax [1, 9]: 113 ng/mL
concentration at 1 h ([1]; human, plasma, oral, 10 mg, Plasma concentrations, Fasting (n = 56), 1 h after 10 mg EMPA): 166 ± 60.6 ng/mL
concentration at 2 h ([1]; human, plasma, oral, 10 mg, Plasma concentrations, Fasting (n = 56), 2 h after 10 mg EMPA): 152 ± 27.3 ng/mL
concentration at 3 h ([1]; human, plasma, oral, 10 mg, Plasma concentrations, Fasting (n = 56), 3 h after 10 mg EMPA): 123 ± 17.9 ng/mL
concentration at 4 h ([1]; human, plasma, oral, 10 mg, Plasma concentrations, Fasting (n = 56), 4 h after 10 mg EMPA): 104 ± 16.4 ng/mL
concentration at 6 h ([1]; human, plasma, oral, 10 mg, Plasma concentrations, Fasting (n = 56), 6 h after 10 mg EMPA): 72 ± 12.5 ng/mL
concentration at 8 h ([1]; human, plasma, oral, 10 mg, Plasma concentrations, Fasting (n = 56), 8 h after 10 mg EMPA): 52.6 ± 9.1 ng/mL
concentration at 10 h ([1]; human, plasma, oral, 10 mg, Plasma concentrations, Fasting (n = 56), 10 h after 10 mg EMPA): 40.4 ± 8.2 ng/mL
concentration at 12 h ([1]; human, plasma, oral, 10 mg, Plasma concentrations, Fasting (n = 56), 12 h after 10 mg EMPA): 30.7 ± 6.5 ng/mL
concentration at 24 h ([1]; human, plasma, oral, 10 mg, Plasma concentrations, Fasting (n = 56), 24 h after 10 mg EMPA): 10.1 ± 3 ng/mL
concentration at 36 h ([1]; human, plasma, oral, 10 mg, Plasma concentrations, Fasting (n = 56), 36 h after 10 mg EMPA): 3.5 ± 1.4 ng/mL
concentration at 48 h ([1]; human, plasma, oral, 10 mg, Plasma concentrations, Fasting (n = 56), 48 h after 10 mg EMPA): 2.2 ± 0.9 ng/mL
concentration at 0.5 h ([1]; human, plasma, oral, 10 mg, Plasma concentrations, Fed (n = 58), high-fat diet, 0.5 h after 10 mg EMPA): 34.2 ± 31 ng/mL
concentration at 1 h ([1]; human, plasma, oral, 10 mg, Plasma concentrations, Fed (n = 58), high-fat diet, 1 h after 10 mg EMPA): 72.9 ± 49.5 ng/mL
concentration at 1.25 h ([1]; human, plasma, oral, 10 mg, Plasma concentrations, Fed (n = 58), high-fat diet, 1.25 h after 10 mg EMPA): 87.4 ± 39.2 ng/mL
concentration at 1.5 h ([1]; human, plasma, oral, 10 mg, Plasma concentrations, Fed (n = 58), high-fat diet, 1.5 h after 10 mg EMPA): 95.7 ± 33.7 ng/mL
concentration at 1.75 h ([1]; human, plasma, oral, 10 mg, Plasma concentrations, Fed (n = 58), high-fat diet, 1.75 h after 10 mg EMPA): 94.1 ± 28.1 ng/mL
concentration at 2 h ([1]; human, plasma, oral, 10 mg, Plasma concentrations, Fed (n = 58), high-fat diet, 2 h after 10 mg EMPA): 94.2 ± 26.3 ng/mL
concentration at 2.25 h ([1]; human, plasma, oral, 10 mg, Plasma concentrations, Fed (n = 58), high-fat diet, 2.25 h after 10 mg EMPA): 91.5 ± 22.6 ng/mL
concentration at 2.75 h ([1]; human, plasma, oral, 10 mg, Plasma concentrations, Fed (n = 58), high-fat diet, 2.75 h after 10 mg EMPA): 83.9 ± 16 ng/mL
concentration at 3 h ([1]; human, plasma, oral, 10 mg, Plasma concentrations, Fed (n = 58), high-fat diet, 3 h after 10 mg EMPA): 79.4 ± 15 ng/mL
concentration at 4 h ([1]; human, plasma, oral, 10 mg, Plasma concentrations, Fed (n = 58), high-fat diet, 4 h after 10 mg EMPA): 74.4 ± 11.1 ng/mL
concentration at 6 h ([1]; human, plasma, oral, 10 mg, Plasma concentrations, Fed (n = 58), high-fat diet, 6 h after 10 mg EMPA): 53.1 ± 8.8 ng/mL
concentration at 8 h ([1]; human, plasma, oral, 10 mg, Plasma concentrations, Fed (n = 58), high-fat diet, 8 h after 10 mg EMPA): 40.5 ± 7.6 ng/mL
concentration at 10 h ([1]; human, plasma, oral, 10 mg, Plasma concentrations, Fed (n = 58), high-fat diet, 10 h after 10 mg EMPA): 32.7 ± 6.7 ng/mL
concentration at 12 h ([1]; human, plasma, oral, 10 mg, Plasma concentrations, Fed (n = 58), high-fat diet, 12 h after 10 mg EMPA): 25.4 ± 4.9 ng/mL
concentration at 24 h ([1]; human, plasma, oral, 10 mg, Plasma concentrations, Fed (n = 58), high-fat diet, 24 h after 10 mg EMPA): 9.3 ± 1.8 ng/mL
concentration at 36 h ([1]; human, plasma, oral, 10 mg, Plasma concentrations, Fed (n = 58), high-fat diet, 36 h after 10 mg EMPA): 3.2 ± 1.2 ng/mL
concentration at 48 h ([1]; human, plasma, oral, 10 mg, Plasma concentrations, Fed (n = 58), high-fat diet, 48 h after 10 mg EMPA): 2.2 ± 0.8 ng/mL
Tmax [1, 8]: 1.31 h
Tmax [1, 9]: 1.67 h
half-life [1, 8]: 8.18 h
half-life [1, 9]: 8.34 h
Structure (SMILES): OC[C@H]1O[C@@H](c2ccc(Cl)c(Cc3ccc(O[C@H]4CCOC4)cc3)c2)[C@H](O)[C@@H](O)[C@@H]1O [EMPA, empagliflozin]
urine-GLU ([2]; fasting group (n = 19), before EMPA (0.3 ± 0.2) mmol/L): 70.9 ± 29.9 mmol/L
β2-MG ([2]; fasting group, urine after EMPA, before EMPA (0.148 ± 0.054) mg/L, p < 0.05): 0.080 ± 0.065 mg/L
α1-MG ([2]; fasting group, urine after EMPA, before EMPA (2.9 ± 1.7) mg/L, p < 0.05): 1.9 ± 1.8 mg/L
α1-MG level, after vs before EMPA ([2]; fed group (EMPA post-meal), urine): did not show a significant difference
urine-GLU ([2]; fed group (n = 23), before EMPA (0.3 ± 0.3) mmol/L): 89.6 ± 35.4 mmol/L
urine-UA ([2]; fed group, after 4 h of EMPA administration, comparison value (2223.8 ± 891.1) mmol/L, p < 0.05): 2751.5 ± 1018.1 mmol/L
β2-MG ([2]; fed group, urine after EMPA, before EMPA (0.145 ± 0.075) mg/L, p < 0.05): 0.094 ± 0.059 mg/L
blood-GLU ([3]; 2 h after EMPA): 4.8 ± 0.3 mmol/L
insulin ([3]; 2 h after EMPA): 5.0 ± 2.2 mU/L
blood-GLU ([3]; 4 h after EMPA): 4.7 ± 0.3 mmol/L
insulin ([3]; 4 h after EMPA): 4.7 ± 3.2 mU/L
BUN ([3]; fed group, 4 h after EMPA, before EMPA (4.4 ± 1.0) mmol/L): 5.5 ± 1.0 mmol/L
SCr ([3]; fed group, 4 h after EMPA, before EMPA (66.0 ± 8.4) mmol/L as printed): 71.5 ± 9.7 µmol/L
eGFR ([3]; fed group, 4 h after EMPA, before EMPA (141.6 ± 22.0)): 128.3 ± 20.7 ml/min/1.73 m^2
blood-UA ([3]; fed group, 4 h after EMPA, comparison value (369.2 ± 62.9) μmol/L): 342.6 ± 57.6 µmol/L
ALD levels, after vs before EMPA ([4]; fasting group): no significant differences
PRC ([4]; fasting group, 2 h after EMPA, before EMPA (37.3 ± 25.8) pg/mL, p < 0.05): 52.2 ± 28.2 pg/mL
PRC ([4]; fasting group, 4 h after EMPA, before EMPA (37.3 ± 25.8) pg/mL, p < 0.05): 51.5 ± 23.7 pg/mL
Ang II ([4]; fasting group, before EMPA (81.9 ± 9.9) pg/mL, p < 0.05): 88.2 ± 10.3 pg/mL
ALD levels, after vs before EMPA ([4]; fed group): no significant differences
PRC ([4]; fed group, 4 h after EMPA, before EMPA (32.5 ± 22.4) pg/mL, p = ns): 30.4 ± 18.9 pg/mL
Ang II ([4]; fed group, before EMPA (91.6 ± 26.7) pg/mL, p < 0.05): 82.6 ± 23.3 pg/mL
effect of a high-fat diet (HFD) on Cmax and AUC ([5]; 25 mg and 50 mg EMPA): reduce
bioavailability [5]: poor
time to reach Cmax [5]: 1.33 to 3.0 h
increase in urinary glucose excretion [6]: 27 times
